Measured values reported in patent US7964565B2, “Method of inhibiting inflammation in a mammal by administering Bcl protein” (University of Washington Center for Commercialization, a …, priority 2004, dated 2011).

Tests used:
[1] = tested on: C57BL/6 mice, hind-limb skeletal muscle ischemia-reperfusion injury; assay: Hind-limb tourniquet ischemia-reperfusion, plasma creatine kinase; type: in vivo, mouse; conditions: tourniquet 90 min, reperfusion 3 hours
Method: Skeletal muscle was made ischemic by applying a tourniquet to the hind-limbs of C57BL/6 mice for 90 minutes, then removing the tourniquet and allowing reperfusion for an additional 3 hours. Mice were treated with active peptide 1 (SEQ ID NO:17) or peptide 2 (SEQ ID NO:18) or peptide 3 (SEQ ID NO:19), or with the scrambled (control) peptide (SEQ ID NO:20). Peptide-1 (SEQ ID NO:17) is from the BH4 region of Bcl-2. Peptide-2 (SEQ ID NO:18) is from the first alpha helix of A1. Peptide-3 (SEQ ID NO:19) is from the BH4 region of Bcl-XL. The amino acid sequences of peptide 1 (SEQ ID NO:17), peptide 2 (SEQ ID NO:18), peptide 3 (SEQ ID NO:19), and the scrambled (control) peptide (SEQ ID NO:20) are set forth in Table 1.
At the end of the 3 hours of reperfusion the mice were killed, and blood was taken for determination of plasma creatine kinase (CK) concentration. The CK concentration was used as an indicator of muscle injury. Elevated levels of CK indicate higher levels of muscle injury. […] The CK concentration for peptide 1 (SEQ ID NO:17) treated mice was 19,020+/−5481 IU/L (n=12) compared with control peptide (SEQ ID NO:20) where CK concentration was 60,530+/−5759 IU/L (n=12). The CK concentration for peptide 2 (SEQ ID NO:18) treated mice was 33,860+/−5997 IU/L (n=11) compared with control peptide (SEQ ID NO:20) where CK concentration was 69,430+/−11,170 IU/L (n=12). The CK concentration for peptide 3 (SEQ ID NO:19) treated mice was 49,500+/−3,901 IU/L (n=5) compared with control peptide (SEQ ID NO:20) where CK concentration was 80,880+/−11,430 IU/L (n=6).

[2] = tested on: C57BL/6 mice, hind limb skeletal muscle ischemia-reperfusion injury; assay: Hind limb ischemia-reperfusion by aortic cross-clamp, plasma creatine kinase; type: in vivo; conditions: protein injected i.p. the day before 90 min hind limb ischemia and 180 min reperfusion; 12 mice per group; rBcl-2 1 μg per mouse vs combined rUbiquitin/vehicle; rA1 vs rUbiquitin
Method: Mouse skeletal muscle was made ischemic by cross-clamping the aorta distal to the renal artery for 90 minutes, then the clamp was removed and hind limb reperfusion continued for 3 hours. At the end of reperfusion (3 hours after clamp removal) the mice were killed, and the concentration of plasma creatine kinase (CK) was measured and used as an indicator of injury (creatine kinase concentration increases as a result of skeletal muscle injury).
Blood from EμT-Bcl-2 mice and their littermate control mice was drawn into heparin and plasma was extracted by centrifugation. One ml of plasma from EμT-Bcl-2 mice, or one ml of plasma from littermate control mice, was injected into the peritoneum of C57BL/6 mice the day before the mice were subjected to 90 minutes of ischemia and 3 hours of reperfusion as described in Example 1 herein. Blood was drawn from the mice and plasma CK concentration was determined at the end of reperfusion.
Control Jaws II cells expressed only EGFP. […]
Medium from cell cultures of hBcl-2-Jaws II cells and EGFP-Jaws II cells was harvested 24 hours after the start of incubation and concentrated approximately 10-fold using centrifugal filters with a molecular size cut-off of approximately 3 kD. […] Plasma was extracted from the mice after ischemia-reperfusion, and plasma CK concentration was determined. […]

[3] = experiment with peptide 2, n=11 peptide, n=12 control

peptide 2: from the first alpha helix of A1; FGYIYRLAQDYLQCVLQIPZPGSGP (SEQ ID NO:18)
plasma CK concentration [1, 3]: 33,860+/−5997 IU/L

control peptide: scrambled (control) peptide; TWHMYGNQRDYIGDRSKIVYKLEYE (SEQ ID NO:20)
plasma CK concentration ([1]; experiment with peptide 1, n=12 per group): 60,530+/−5759 IU/L
plasma CK concentration [1, 3]: 69,430+/−11,170 IU/L
plasma CK concentration ([1]; experiment with peptide 3, n=5 peptide, n=6 control): 80,880+/−11,430 IU/L

B1: rA1: human A1 minus 25 amino acids at the carboxy terminal and addition of 6 histidine on the remaining protein (protein, listed as Homo sapiens)
chain: MTDCEFGYIYRLAQDYLQCVLQIPQPGSGPSKTSRVLQNVAFSVQKEVEKNLKSCLDNVNVVSVDTARTLFNQVMEKEFEDGIINWGRIVTIFAFEGILIKKLLRQQIAPDVDTYKEISYFVAEFIMNNTGEWIRQNGGWENGFVKKFEPKSHHHHHH
plasma creatine kinase levels vs control [2]: significantly (p<0.05) lower
